Structures are written as SMILES. pEC50: −log10 of the molar value.

Three molecules from patent US8735433B1, “Aryl oxadiazole derivatives as sphingosine 1-phosphate (S1P) receptor modulators” (Allergan, Inc., priority 2012, dated 2014) can be followed below.

T1 sequence (P21453 whole entry): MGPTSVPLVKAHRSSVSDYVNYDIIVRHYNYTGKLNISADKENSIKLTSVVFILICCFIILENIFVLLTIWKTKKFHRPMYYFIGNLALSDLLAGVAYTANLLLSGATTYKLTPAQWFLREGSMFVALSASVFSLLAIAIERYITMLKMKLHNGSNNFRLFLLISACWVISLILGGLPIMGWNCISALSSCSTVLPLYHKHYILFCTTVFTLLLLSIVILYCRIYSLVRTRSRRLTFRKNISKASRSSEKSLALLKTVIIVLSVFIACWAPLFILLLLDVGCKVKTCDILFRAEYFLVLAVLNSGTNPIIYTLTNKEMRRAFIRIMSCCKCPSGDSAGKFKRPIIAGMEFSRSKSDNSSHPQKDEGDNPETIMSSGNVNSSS

This experiment addresses T1, human S1P1 receptor (Homo sapiens, UniProt P21453).
T1 construct: expressed in transfected cells; membrane preparation
Kind of experiment: GTP γ35S binding assay for S1P1 activity. The class given is biochemical. To be noted: membranes of cells stably expressing the S1P1 receptor, test compounds 0.08 to 5,000 nM, 30 min at 25° C. As to the method: Compounds were synthesized and tested for S1P1 activity using the GTP γ^35S binding assay. These compounds may be assessed for their ability to activate or block activation of the human S1P1 receptor in cells stably expressing the S1P1 receptor.
GTP γ^35S binding was measured in the medium containing (mM) HEPES 25, pH 7.4, MgCl2 10, NaCl 100, dithitothreitol 0.5, digitonin 0.003%, 0.2 nM GTP γ^35S, and 5 μg membrane protein in a volume of 150 μl. Test compounds were included in the concentration range from 0.08 to 5,000 nM unless indicated otherwise. Membranes were incubated with 100 μM 5′-adenylylimmidodiphosphate for 30 min, and subsequently with 10 μM GDP for 10 min on ice. Drug solutions and membrane were mixed, and then reactions were initiated by adding GTP γ^35S and continued for 30 min at 25° C. Reaction mixtures were filtered over Whatman GF/B filters under vacuum, and washed three times with 3 mL of ice-cold buffer (HEPES 25, pH7.4, MgCl2 10 and NaCl 100). Filters were dried and mixed with scintillant, and counted for ^35S activity using a β-counter. Agonist-induced GTP γ^35S binding was obtained by subtracting that in the absence of agonist. Binding data were analyzed using a non-linear regression method. In case of antagonist assay, the reaction mixture contained 10 nM S1P in the presence of test antagonist at concentrations ranging from 0.08 to 5000 nM.
(Binding of GTPγS marks nucleotide exchange on a G protein.)
One may read the pEC50 as −log10 of the EC50, conventionally taken in molar units. The low end stands for a large EC50, the high end for a small EC50. Regarding `Cc1ccc(CC(c2nc(-c3ccc(CCC(N)(CO)CO)cc3)no2)c2cccs2)cc1C` (stereo not drawn), the pEC50 was 5.92.

With `Cc1ccc(CC(c2cccc(Cl)c2)c2nc(-c3ccc(CCC(N)(CO)CO)cc3)no2)cc1C` (stereo not drawn) [2-amino-2-[2-(4-{5-[1-(3-chlorophenyl)-2-(3,4-dimethylphenyl)ethyl]-1,2,4-oxadiazol-3-yl}phenyl)ethyl]propane-1,3-diol], the pEC50 is 6.76.

For `Cc1ccc(CC(c2cc(F)cc(F)c2)c2nc(-c3ccc(CCC(N)(CO)CO)cc3)no2)cc1C` (stereo not drawn) [Compound 1, 2-amino-2-[2-(4-{5-[1-(3,5-difluorophenyl)-2-(3,4-dimethylphenyl)ethyl]-1,2,4-oxadiazol-3-yl}phenyl)ethyl]propane-1,3-diol], the negative-log EC50 (pEC50) was 7.06.
